Assay results as given in patent US20160257749A1, “ANTI-TIM3 ANTIBODIES AND METHODS OF USE” (Hoffmann-La Roche, Inc., priority 2014, published 2016).

Columns and labels:
Pfeiffer cells [1] = test: Cytotoxic activity, human IgG1 format with anti-human Fc Fab-PE24, CellTiter-Glo; assay type: cell-based; conditions: full length human IgG1 format + human Fcγ specific Fab-PE 24 (10 μg/ml), 5 days at 37° C.
Source text: (§1) Rel. Inhibition [%]=(1−(Esample−Enegative control)/(Epositive control−Enegative control))*100

RPMI-8226 cells [2] = test: as above; assay type: cell-based; conditions: full length human IgG1 format + human Fcγ specific Fab-PE 24 (10 μg/ml), 5 days at 37° C.
Source text: as §1

Pfeiffer cells [3] = test: Cytotoxic activity of sortase coupled Fab-PE24 constructs, CellTiter-Glo; assay type: cell-based, human
Experimental: (§2) Treatment ranges from 50 μg/ml to 8 μg/ml in triplicate. Cycloheximide was used as positive control.

RPMI-8226 cells [4] = test: as above; assay type: cell-based, human
Experimental: as §2

primary CD34+ AML cells = test: Cytotoxic activity of Fab-PE24 constructs on primary AML cells from relapsed/refractory patients; assay type: cell-based, human; conditions: 3 days at 37° C.
Source text: CD34+ cells from peripheral blood of relapsed/refractory patients were obtained from AllCells, LLC, Alameda, Calif.
Cycloheximide was used as positive control.

TF-1 = test: Cytotoxic activity of Fab-PE24 constructs, CellTiter-Glo; assay type: cell-based, human; conditions: 4 days at 37° C.
Experimental: as §2

RPMI-8226 = test: as above; assay type: cell-based, human; conditions: 4 days at 37° C.
Experimental: as §2

Karpas-299 = test: as above; assay type: cell-based, human; conditions: 4 days at 37° C.
Experimental: as §2

CMK = test: as above; assay type: cell-based, human; conditions: 4 days at 37° C.
Experimental: as §2

MOLM-13 = test: as above; assay type: cell-based, human; conditions: 4 days at 37° C.
Experimental: as §2

Pfeiffer cells [5] = test: Cytotoxic activity of Fab-PE24 construct vs total IgG-Amatoxin conjugate, CellTiter-Glo; assay type: cell-based, human
Experimental: as §2

recTIM-3 CHO cells = test: Cytotoxic activity, sandwich format with anti-mouse Fc Fab-PE24, CellTiter-Glo; assay type: cell-based; conditions: Cricetulus griseus, 72 h, full length mouse Fcγ versions + mouse Fcγ specific Fab-PE 24 (10 μg/ml), 3 days at 37° C.
Source text: as §1

RNA-polymerase II = RNA-polymerase II (Homo sapiens, UniProt P24928+P30876); conditions: read-out: KD of the complex between amanitin and RNA-polymerase II; cited from earlier work

| Compound | Pfeiffer cells Max. killing (Pfeiffer cells [1]) | RPMI-8226 cells Max. killing (RPMI-8226 cells [2]) | Pfeiffer cells Max. killing (Pfeiffer cells [3]) | RPMI-8226 cells Max. killing (RPMI-8226 cells [4]) | D1; AML CD34+ PB0136 cells Max. killing (primary CD34+ AML cells) | D2; AML CD34+ PB0142 cells Max. killing (primary CD34+ AML cells) | D3; AML CD34+ PB0135 cells Max. killing (primary CD34+ AML cells) | D4; AML CD34+ PB0193 cells Max. killing (primary CD34+ AML cells) | TF-1 Max. killing (TF-1) | RPMI-8226 Max. killing (RPMI-8226) | Karpas-299 Max. killing (Karpas-299) | CMK Max. killing (CMK) | MOLM-13 Max. killing (MOLM-13) | Pfeiffer cells Max. killing (Pfeiffer cells [5]) | IC50 (recTIM-3 CHO cells) | Kd (RNA-polymerase II) |
| --- | --- | --- | --- | --- | --- | --- | --- | --- | --- | --- | --- | --- | --- | --- | --- | --- |
| C[C@@H]1C[C@@H]([C@H](O)CC2CC(=O)NC(=O)C2)C(=O)[C@@H](C)C1 [Cycloheximide, reference compound] | 100 [%] | 100 [%] | 100 [%] | 100 [%] | 100 [%] | 100 [%] | 100 [%] | 100 [%] | 100% | 100% | 100% | 100% | 100% | 100 [%] | 0.135 µM |  |
| amanitin |  |  |  |  |  |  |  |  |  |  |  |  |  |  |  | 0.003 µM |
